From patent publication US7919261B2, “Methods for predicting treatment response based on the expression profiles of protein and transcription biomarkers” (Merck Sharp & Dohme Corp., priority 2006, dated 2011)

Assays:
[1] = tested on: HUT78; assay: TUNEL assay, vorinostat, JAK inhibitor and combination; assay type: cell-based, human; settings: for % TUNEL positive cells: HUT78 cells, 48 h, induction of apoptosis
[2] = tested on: DB; assay: CellTiter-Blue Cell Viability Assay; assay type: cell-based; settings: Homo sapiens; cell line DB, Lymphoma DLBCL; read-out: IC50 (μM) (Cell Titre-Blue assay)
Method: (§1) For the proliferation assay, cell lines were seeded on 96-well plates (Corning). […] The CellTiter-Blue Reagent™ was added to each of the wells. Experiments were performed in triplicate. The plates were then placed at 37° C. for two hours, and subsequently read on the Flex Station II […] from Molecular Devices. The IC50 values were calculated using the Sigma Plot software.
(§2) An expanded set of 50 human cell lines, including the twelve cell lines listed in Table 1, were assembled (Table 2), that represent a range of lymphoid tumor types (including 10 diffuse large B cell lymphoma, 10 Burkitt lymphoma, 8 multiple myeloma and 5 CTCL).

[3] = tested on: HUT_102; assay: CellTiter-Blue Cell Viability Assay; assay type: cell-based; settings: Homo sapiens, HuT-102; cell line HUT_102 (HUT102), Lymphoma - CTCL; read-out: IC50 (μM) (Cell Titre-Blue assay)
Method: as §1, §2

[4] = tested on: HuT_78; assay: CellTiter-Blue Cell Viability Assay; assay type: cell-based; settings: Homo sapiens, HuT78; cell line HuT_78, Lymphoma- CTCL; read-out: IC50 (μM) (Cell Titre-Blue assay)
Method: as §1, §2

[5] = tested on: IM_9; assay: CellTiter-Blue Cell Viability Assay; assay type: cell-based; settings: Homo sapiens, IM-9; cell line IM_9, Multiple Myeloma; read-out: IC50 (μM) (Cell Titre-Blue assay)
Method: as §1, §2

[6] = tested on: OCI_LY_19; assay: CellTiter-Blue Cell Viability Assay; assay type: cell-based; settings: Homo sapiens, OCI-LY19; cell line OCI_LY_19, Lymphoma DLBCL; read-out: IC50 (μM) (Cell Titre-Blue assay)
Method: as §1, §2

[7] = tested on: RL; assay: CellTiter-Blue Cell Viability Assay; assay type: cell-based; settings: Homo sapiens; cell line RL, Lymphoma - DLBCL; read-out: IC50 (μM) (Cell Titre-Blue assay)
Method: as §1, §2

[8] = tested on: SU_DHL_4; assay: CellTiter-Blue Cell Viability Assay; assay type: cell-based; settings: Homo sapiens, SU-DHL-4; cell line SU_DHL_4, Lymphoma DLBCL; read-out: IC50 (μM) (Cell Titre-Blue assay)
Method: as §1, §2

[9] = tested on: Toledo; assay: CellTiter-Blue Cell Viability Assay; assay type: cell-based; settings: Homo sapiens, cell line Toledo (1), Lymphoma DLBCL, read-out: IC50 (μM) (Cell Titre-Blue assay)
Method: as §1, §2

[10] = tested on: BC_3; assay: ApoONE Homogeneous Caspase-3/7 Assay; assay type: cell-based, human; settings: cell line BC_3
Method: (§3) Apoptosis assay: ApoONE® Homogeneous Caspase-3/7 Assay (Promega) was performed according to standard protocol (Promega). For the caspase assay cell lines were seeded and treated with vorinostat as previously indicated. After 24 hours of treatment, a volume equal to the media volume in each well of Apo-One Caspase 3/7 lysis was added to each well with cells. The apoptosis assay was then performed according to the manufacturer's instructions. The plates were read on the Flex Station II 384 from Molecular Devices. Where indicated, DNA fragmentation in response to vorinostat was also assessed in some cell lines by TUNEL assay (BD-PharMingen). […] Samples were analyzed by flow cytometry (FACSCalibur).
as §2

[11] = tested on: HH; assay: ApoONE Homogeneous Caspase-3/7 Assay; assay type: cell-based, human; settings: cell line HH
Method: as §3, §2

[12] = tested on: JM1; assay: ApoONE Homogeneous Caspase-3/7 Assay; assay type: cell-based, human; settings: cell line JM1
Method: as §3, §2

[13] = tested on: ST486; assay: ApoONE Homogeneous Caspase-3/7 Assay; assay type: cell-based, human; settings: cell line ST486
Method: as §3, §2

[14] = tested on: SUP_T1; assay: ApoONE Homogeneous Caspase-3/7 Assay; assay type: cell-based, human; settings: cell line SUP_T1 (SUPT1)
Method: as §3, §2

[15] = tested on: Toledo; assay: ApoONE Homogeneous Caspase-3/7 Assay; assay type: cell-based, human
Method: as §3, §2

Structure (SMILES)	induction of apoptosis in combination with vorinostat (TUNEL assay) ([1]; HUT78 CTCL cells, as detailed in Table 4)	% TUNEL positive cells [1]	IC50 [2]	IC50 [3]	IC50 [4]	IC50 [5]	IC50 [6]	IC50 [7]	IC50 [8]	IC50 [9]	Caspase 3,7 activation- 24 h (1 μM vorinostat)* [10]	Caspase 3,7 activation- 24 h (1 μM vorinostat)* [11]	Caspase 3,7 activation- 24 h (1 μM vorinostat)* [12]	Caspase 3,7 activation- 24 h (1 μM vorinostat)* [13]	Caspase 3,7 activation- 24 h (1 μM vorinostat)* [14]	Caspase 3,7 activation- 24 h (1 μM vorinostat)* ([15]; cell line Toledo (1))	Caspase 3,7 activation- 24 h (1 μM vorinostat)* ([15]; cell line Toledo (avg))
CC(C)(C)c1nc2c3cc[nH]c(=O)c3c3cc(F)ccc3c2[nH]1 [Compound B, 2-tert-butyl-9-fluoro-1,6-dihydro-7H-benzo[h]imidazo[4,5-f]isoquinolin-7-one]	synergistic induction of apoptosis	37%															
CN[C@@H]1C[C@H]2O[C@@](C)([C@@H]1OC)n1c3ccccc3c3c4c(c5c6ccccc6n2c5c31)C(=O)NC4 [ST, staurosporine]		40%															
O=C(CCCCCCC(=O)Nc1ccccc1)NO [vorinostat, suberoylanilide hydroxamic acid]		11%	1.87 µM	0.83 µM	2.13 µM	1.57 µM	1.58 µM	2.23 µM	1.88 µM	0.66 µM	+ (Caspase 3,7 activation > 2 fold over untreated control.)	+ (Caspase 3,7 activation > 2 fold over untreated control.)	+ (Caspase 3,7 activation > 2 fold over untreated control.)	+ (Caspase 3,7 activation > 2 fold over untreated control.)	+ (Caspase 3,7 activation > 2 fold over untreated control.)	+ (Caspase 3,7 activation > 2 fold over untreated control.)	+ (Caspase 3,7 activation > 2 fold over untreated control.)
